Reference: publication PMC6770320 (Cancers, 2019)
Blank lines part the entries; values can stand above or below the compound they belong to.

Experiments:
[1] = biological target: T1, multidrug resistance protein 2 (MRP2) (Homo sapiens, UniProt Q92887); test: inhibition of oxaliplatin-stimulated ([…]) vanadate-sensitive ATPase in membrane vesicles; […] reduction at […]; assay type: cell-based
T1 construct: gene ABCC2; membrane vesicles from Sf9 cells overexpressing human MRP2

[2] = biological target: T1, multidrug resistance protein 2 (MRP2); test: inhibition of oxaliplatin-stimulated ([…]) vanadate-sensitive ATPase in membrane vesicles; […] reduction at […], no apparent effect at […]; assay type: cell-based
[3] = biological target: T1, multidrug resistance protein 2 (MRP2); test: vanadate-sensitive ATPase stimulation in Sf9/MRP2 membrane vesicles, with control vesicles; assay type: biochemical
Excerpt: vanadate-sensitive ATPase stimulation in Sf9/MRP2 membrane vesicles, with control vesicles on multidrug resistance protein 2 (MRP2) | oxaliplatin stimulated the vanadate-sensitive MRP2 ATPase activities in a concentration-dependent manner

T1 sequence (Q92887 whole entry): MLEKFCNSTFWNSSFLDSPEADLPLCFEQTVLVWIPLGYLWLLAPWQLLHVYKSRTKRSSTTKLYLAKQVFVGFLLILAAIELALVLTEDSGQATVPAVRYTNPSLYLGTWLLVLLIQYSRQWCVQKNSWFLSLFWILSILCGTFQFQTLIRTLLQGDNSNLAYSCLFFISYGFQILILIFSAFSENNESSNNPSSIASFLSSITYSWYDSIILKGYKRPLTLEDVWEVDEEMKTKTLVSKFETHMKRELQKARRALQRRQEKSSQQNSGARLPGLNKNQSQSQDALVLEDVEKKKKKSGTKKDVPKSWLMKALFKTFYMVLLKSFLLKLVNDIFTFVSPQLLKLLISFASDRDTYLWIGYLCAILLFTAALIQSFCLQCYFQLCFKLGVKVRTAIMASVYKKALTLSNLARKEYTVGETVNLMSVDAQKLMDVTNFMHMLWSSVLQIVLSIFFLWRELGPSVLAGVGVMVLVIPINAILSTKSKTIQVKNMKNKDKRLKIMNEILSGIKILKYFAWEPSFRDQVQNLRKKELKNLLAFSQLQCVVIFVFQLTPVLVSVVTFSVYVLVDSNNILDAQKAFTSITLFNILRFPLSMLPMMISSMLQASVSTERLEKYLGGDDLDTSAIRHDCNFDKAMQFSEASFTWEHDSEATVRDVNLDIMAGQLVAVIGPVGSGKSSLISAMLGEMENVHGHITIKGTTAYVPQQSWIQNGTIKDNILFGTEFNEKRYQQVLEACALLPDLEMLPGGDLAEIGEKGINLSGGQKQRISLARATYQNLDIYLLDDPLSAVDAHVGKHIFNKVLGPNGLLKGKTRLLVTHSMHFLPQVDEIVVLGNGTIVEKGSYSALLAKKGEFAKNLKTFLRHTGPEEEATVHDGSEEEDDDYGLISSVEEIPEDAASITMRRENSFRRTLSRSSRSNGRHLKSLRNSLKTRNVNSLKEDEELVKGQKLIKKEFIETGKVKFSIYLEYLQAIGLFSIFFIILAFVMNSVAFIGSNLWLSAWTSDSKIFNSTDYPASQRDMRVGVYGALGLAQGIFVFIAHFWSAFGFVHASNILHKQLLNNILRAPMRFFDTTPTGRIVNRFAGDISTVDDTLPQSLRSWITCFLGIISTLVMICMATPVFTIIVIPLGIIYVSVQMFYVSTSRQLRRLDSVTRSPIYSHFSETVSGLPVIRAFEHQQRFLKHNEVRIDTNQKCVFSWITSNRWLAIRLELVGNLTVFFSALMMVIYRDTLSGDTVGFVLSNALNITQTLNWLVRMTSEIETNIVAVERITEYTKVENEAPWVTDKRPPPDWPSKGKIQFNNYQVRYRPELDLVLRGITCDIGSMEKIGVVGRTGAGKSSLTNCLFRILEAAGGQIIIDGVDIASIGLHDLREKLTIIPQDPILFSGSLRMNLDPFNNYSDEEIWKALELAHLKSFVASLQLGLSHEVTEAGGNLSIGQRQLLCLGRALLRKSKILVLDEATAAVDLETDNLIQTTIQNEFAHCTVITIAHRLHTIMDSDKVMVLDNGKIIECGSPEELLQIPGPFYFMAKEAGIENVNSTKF

Structure (SMILES): CCc1oc2ccccc2c1C(=O)c1cc(Br)c(O)c(Br)c1 [benzbromarone]
- inhibition at 100 µM [1]: 90%

- inhibition at 60 µM [2]: 40%
Structure (SMILES): O=c1c(O)c(-c2cc(O)c(O)c(O)c2)oc2cc(O)cc(O)c12 [myricetin]

Structure (SMILES): O=C1[O][Pt]2([NH][C@@H]3CCCC[C@H]3[NH]2)[O]C1=O [oxaliplatin]
- EC50 [3]: 8.3 ± 0.7 µM
